Source: patent US12285403B2, “A2-73 as a therapeutic for insomnia, anxiety and agitation” (Anavex Life Sciences Corp., priority 2016, dated 2025)

What was measured:
[1] = test system: insomnia, anxiety or agitation; assay: Single-patient therapy Examples 1-10 (insomnia, anxiety, agitation); assay type: in vivo, human
Method: A person presents as suffering from maintenance insomnia for one year. They are started on oral A2-73 at 10 mg/day. […] They are currently maintained on 10 mg of A2-73 and is sleeping well. A person presents with anxiety of three years' duration. They are administered A2-73 at 20 mg oral per day every other day. […] They are maintained on this dosing schedule for 60 days. […] They are treated with 30 mg A2-73 oral daily for 30 days. […] They are currently maintained at that dosage and is not anxious. A person presents with MCI and reports maintenance insomnia for one year. They are started on oral A1-41 at 10 mg/day. […] They are currently maintained on 10 mg of A1-41 and is sleeping well. The patient is a person with diagnosed AD and reported anxiety of three years' duration. They are administered A19-144 at 20 mg oral per day every day for 90 days. […] They are chronically maintained on this dosing schedule. A person diagnosed with mild cognitive impairment presents as suffering from maintenance insomnia for one year. They are started on oral A2-73 at 50 mg/day. […] They are currently maintained on 50 mg of A2-73 daily and is sleeping well. A person diagnosed with Alzheimer's disease presents with insomnia/WASO and agitation and a systolic blood pressure of 145 mm Hg. They are started on oral A2-73 at 30 mg/day. […] They are also less agitated. Their results on all cognitive tests and HAM-D improve. They are currently maintained on 30 mg of A2-73 daily. A person diagnosed with Alzheimer's disease presents with insomnia/WASO and agitation. They are started on oral A2-73 at 100 mg/day. […] They are also less agitated. Their results on all cognitive tests and HAM-D improve. They are currently maintained on 100 mg of A2-73 every other day. A person diagnosed with Alzheimer's disease presents with insomnia/WASO and agitation. They are started on oral A19-144 at 50 mg/day. […] They are also less agitated. Their results on all cognitive tests and HAM-D improve. They are currently maintained on 50 mg of A19-144 daily. A person diagnosed with Alzheimer's disease presents with insomnia/WASO and agitation. They are started on oral A1-41 at 30 mg/day. […] They are also less agitated. Their results on all cognitive tests and HAM-D improve. They are currently maintained on 30 mg of A1-41 daily.

[2] = Safety, tolerability and patient retention, Phase 2a study; assay type: in vivo, human
Source text: The safety and efficacy of A2-73 has been studied Phase 2a Study in mild-moderate Alzheimer's disease patients. […] Without being bound by any particular theory, it is believed that A2-73 activates the stress-reducing and survival protein, the Sigma-1 receptor. The data of Table 1 is from an open-label, clinical trial, performed on a group of 30 mild-to-moderate AD patients (MMSE range 16-23, 40% female) on donepezil treatment, with […] 2-73. […]

[3] = Example 7: oral 30 mg/day, 30 days
[4] = Example 8: oral 100 mg/day, 30 days

SMILES: CN(C)CC1CCOC1(c1ccccc1)c1ccccc1.Cl (stereo not shown) [A2-73, tetrahydro-N,N-dimethyl-2,2-diphenyl-3-furanmethanamine hydrochloride]
- Sleep at follow up (maintenance insomnia) ([1]; Example 1: person, oral 10 mg/day, 30 days): sleeping well
- Anxiety ([1]; Example 2: person, 20 mg oral every other day, after two days of dosing): Resolution of the anxiety
- Clinical evaluation of agitation ([1]; Example 3: person, 30 mg oral daily for 30 days): normal affect without agitation
- Sleep at follow up (maintenance insomnia) ([1]; Example 6: person with MCI, oral 50 mg/day, 30 days): sleeping well
- Agitation at follow up [1, 3]: less agitated
- Results on all cognitive tests and HAM-D [1, 3]: improve
- Systolic BP at follow up ([1]; Example 7: oral 30 mg/day, 30 days, 145 mm Hg at presentation): 129 mm Hg
- Sleep at follow up (insomnia/WASO) ([1]; Example 7: person with AD, oral 30 mg/day, 30 days): sleeping well through the night
- Agitation at follow up [1, 4]: less agitated
- Results on all cognitive tests and HAM-D [1, 4]: improve
- Sleep at follow up (insomnia/WASO) ([1]; Example 8: person with AD, oral 100 mg/day, 30 days): sleeping well through the night
- Adverse event: headache ([2]; 30 mg): 10%
- Adverse event: mild dizziness ([2]; 30 mg): 5%
- Changes in clinical labs and EKGs ([2]; 30 mg): no significant changes
- Tolerability ([2]; 30 mg): well tolerated
- Safety and tolerability/risk profile ([2]; 32 patients with mild-to-moderate AD, Phase 2a): favorable safety and tolerability/risk profile
